Results on 1 molecule are retold here after patent US12077503B2, “Substituted cyclic amides and their use as herbicides” (FMC CORPORATION, priority 2015, dated 2024).

Common to all, as to type: in vivo
One experiment has as its system rice (Oryra sativa). Kind of experiment: Test B flooded paddy test. The note with it: Oryza sativa, Flood, 250 g ai/ha; scale of 0 to 100 where 0 is no effect and 100 is complete control; read-out: Rice plant response rating. The gist of the method: (§1)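 Visual ratings (0 none to 100 complete control) are relative to untreated plants, taken 13–15 d after treatment in a greenhouse. Test material went straight into floodwater standing 3 cm above the soil, kept constant, on plants at the 2-leaf stage.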

The test system of experiment [1] is barnyardgrass (Echinochloa crus-galli). The experiment is described as follows: Test B flooded paddy test. The note with it: Echinochloa crus-galli, Flood, 250 g ai/ha; scale of 0 to 100 where 0 is no effect and 100 is complete control; read-out: Barnyardgrass plant response rating. An outline of the steps: as §1
Experiment [2] concerns sedge, umbrella (small-flower umbrella sedge, Cyperus difformis). Kind of experiment: Test B flooded paddy test. As to conditions: Cyperus difformis, Flood, 250 g ai/ha; scale of 0 to 100 where 0 is no effect and 100 is complete control; read-out: Sedge, Umbrella plant response rating. An outline of the steps:
as §1

Experiment [3] concerns ducksalad (Heteranthera limosa). Kind of experiment: Test B flooded paddy test. As to conditions: Heteranthera limosa, Flood, 250 g ai/ha; scale of 0 to 100 where 0 is no effect and 100 is complete control; read-out: Ducksalad plant response rating. The gist of the method: as §1
Experiment [4] relates to ragweed (common ragweed, Ambrosia elatior). The experiment is described as follows: Test A preemergence. The note with it: Ambrosia artemisiifolia, pre-emergence, 240 h, read-out: Plant response rating, Ragweed. An outline of the steps:
(§2)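 Visual injury, scored on a 0–100 scale relative to untreated controls, was recorded about 10 d after application. Treatments were a preemergence soil spray over planted seeds or a postemergence spray on plants at the one- to two-leaf stage, 2 to 10 cm tall, all in loam soil–sand blend in the greenhouse.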

The next experiment deals with Kochia (Kochia scoparia). Kind of experiment: Test A preemergence. The note with it: Bassia scoparia, pre-emergence, 240 h, read-out: Plant response rating, Kochia. The gist of the method: as §2
Experiment [5] deals with giant foxtail (Setaria faberii). The experiment is described as follows: Test A preemergence. As to conditions: Setaria faberi, pre-emergence, 240 h, read-out: Plant response rating, Foxtail, Giant. An outline of the steps: as §2
Experiment [6] deals with barnyardgrass (Echinochloa crus-galli). Kind of experiment: Test A preemergence. As to conditions: Echinochloa crus-galli, pre-emergence, 240 h, read-out: Plant response rating, Barnyardgrass. The gist of the method:
as §2

The subject of experiment [7] is ryegrass, Italian (Italian ryegrass, Lolium multiflorum). Kind of experiment: Test A preemergence. The note with it: Lolium multiflorum, pre-emergence, 240 h, read-out: Plant response rating, Ryegrass, Italian. The gist of the method:
as §2

The test system of experiment [8] is pigweed (Amaranthus retroflexus). Kind of experiment: Test A preemergence. As to conditions: Amaranthus retroflexus, pre-emergence, 240 h, read-out: Plant response rating, Pigweed.
Experiment [9] has as its system giant foxtail (Setaria faberii). Kind of experiment: Test A postemergence. The note with it: Setaria faberi, post-emergence, 240 h. The gist of the method:
as §2

Experiment [10] relates to barnyardgrass (Echinochloa crus-galli). Kind of experiment: Test A postemergence. As to conditions: Echinochloa crus-galli, post-emergence, 240 h. An outline of the steps: as §2
For experiment [11], the system named is ryegrass, Italian (Italian ryegrass, Lolium multiflorum). The experiment is described as follows: Test A postemergence. The note with it: Lolium multiflorum, post-emergence, 240 h. An outline of the steps:
as §2

Experiment [12] concerns pigweed (Amaranthus retroflexus). The experiment is described as follows: Test A postemergence. As to conditions: Amaranthus retroflexus, post-emergence, 240 h. The gist of the method:
as §2

[13] abbreviates: 125 g ai/ha, preemergence, visual rating after approx. 10 d, 0 to 100 scale where 0 is no effect and 100 is complete control.
Where [14] appears, read: Preemergence, 31 g ai/ha, 0 to 100 scale (0 no effect, 100 complete control).

Molecules are shown by their SMILES.

As to `CN1CC[C@H](c2cccc(OC(F)(F)F)c2)[C@@H](C(=O)Nc2cccc(Cl)c2F)C1=O` [Compound 810], the pest or weed control at 250 g/ha in the experiment on rice (Oryra sativa) was 0%; in [1] it was 60%; in [2], 0%; in experiment [3], 90%. Also, the pest or weed control at 125 g/ha was determined as 0% in experiment [4] (setting [13]); 0% with Kochia (Kochia scoparia) (setting [13]); 90% in experiment [5] (setting [13]); 90% in experiment [6] (setting [13]); 20% in experiment [7] (setting [13]); 0% in experiment [8] (setting [13]). Also, the pest or weed control at 125 g/ha in [9] (125 g ai/ha, postemergence, visual injury rating after approximately 10 d, read-out: Foxtail, Giant plant response rating (0 to 100 scale, 0 no effect, 100 complete control)) was 80%; in [10] (125 g ai/ha, postemergence, visual injury rating after approximately 10 d, read-out: Barnyardgrass plant response rating (0 to 100 scale, 0 no effect, 100 complete control)), 70%; in experiment [11] (125 g ai/ha, postemergence, visual injury rating after approximately 10 d, read-out: Ryegrass, Italian plant response rating (0 to 100 scale, 0 no effect, 100 complete control)), 0%; in [12] (125 g ai/ha, postemergence, visual injury rating after approximately 10 d, read-out: Pigweed plant response rating (0 to 100 scale, 0 no effect, 100 complete control)), 0%. In addition, the pest or weed control at 31 g/ha came out at 0% in experiment [4] (setting [14]); 0% with Kochia (Kochia scoparia) (setting [14]); 70% in experiment [5] (setting [14]); 90% in [6] (setting [14]); 0% in experiment [7] (setting [14]); 0% in experiment [8] (setting [14]). Besides, the pest or weed control at 31 g/ha worked out at 60% in [9] (Postemergence, 31 g ai/ha, visual injury after approx. 10 d, 0 to 100 scale, 0 no effect, 100 complete control, read-out: Plant response rating, Foxtail, Giant); 40% in experiment [10] (Postemergence, 31 g ai/ha, visual injury after approx. 10 d, 0 to 100 scale, 0 no effect, 100 complete control, read-out: Plant response rating, Barnyardgrass); 0% in experiment [11] (Postemergence, 31 g ai/ha, visual injury after approx. 10 d, 0 to 100 scale, 0 no effect, 100 complete control, read-out: Plant response rating, Ryegrass, Italian); 0% in experiment [12] (Postemergence, 31 g ai/ha, visual injury after approx. 10 d, 0 to 100 scale, 0 no effect, 100 complete control, read-out: Plant response rating, Pigweed).
